The text below walks through data of publication PMC9283420, “Conformational changes in the catalytic region are responsible for heat-induced activation of hyperthermophilic homoserine dehydrogenase” (Communications Biology, 2022).

In general, stoichiometry N refers to the number of molecules, sites or subunits per partner or assembly.

Data set [1] deals with T1, immature StHSD (not heat-treated) (Sulfurisphaera tokodaii, UniProt F9VNG5).
T1 construct: gene hom; full length (residues 1-304 described), recombinant from plasmid pSTHSD in E. coli BL21 at 310 K, purified without heat treatment; homodimer with C303-C303 intersubunit disulfide (oxidized)
T1 sequence (F9VNG5 1-304): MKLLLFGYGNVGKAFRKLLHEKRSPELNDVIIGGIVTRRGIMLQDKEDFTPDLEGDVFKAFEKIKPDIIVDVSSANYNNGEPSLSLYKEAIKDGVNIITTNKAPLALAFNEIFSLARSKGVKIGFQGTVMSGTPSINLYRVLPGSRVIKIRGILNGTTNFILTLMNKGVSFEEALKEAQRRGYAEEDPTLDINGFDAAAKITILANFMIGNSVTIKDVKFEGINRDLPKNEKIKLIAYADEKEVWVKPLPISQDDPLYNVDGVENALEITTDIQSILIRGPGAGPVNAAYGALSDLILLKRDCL
The experiment in a line: initial velocity of NADH production at […] nm; Morrison fit. Type of data set: biochemical. The note with it: read-out: apparent Ki.

For data set [2], the target named is T2, mature StHSD (heat-treated) (Sulfurisphaera tokodaii, UniProt F9VNG5).
T2 construct: gene hom; full length (residues 1-304 described), recombinant from plasmid pSTHSD in E. coli BL21, matured by heat treatment (343 K); homodimer
T2 sequence (F9VNG5 1-304): T1 sequence (F9VNG5 1-304)
The data set is described as above. It is filed as biochemical. To be noted: read-out: apparent Ki.

Data set [3] deals with the molecule itself. Put plainly: crystal structure; hanging-drop vapor diffusion at 295 K; immature enzyme as apo-form (IM) and with NADP+ and 1,4-butanediol (IM/NADP/BU); space group P2(1), two subunits in the asymmetric unit.

As for `NC(=O)c1ccc[n+]([C@@H]2O[C@H](COP(=O)(O)OP(=O)(O)OC[C@H]3O[C@@H](n4cnc5c(N)ncnc54)[C@H](OP(=O)(O)O)[C@@H]3O)[C@@H](O)[C@H]2O)c1` [NADP^+], the Ki in data set [1] is 26 ± 1.7 µM; in data set [2], 48 ± 1.2 µM.

B1: homoserine dehydrogenase from the hyperthermophilic archaeon Sulfurisphaera tokodaii strain 7 (StHSD), immature enzyme (enzyme)
chain: T1 sequence (F9VNG5 1-304)
modifications: disulfide bond between the C303 residues of the two subunits
notes: homoserine dehydrogenase, Sulfurisphaera tokodaii strain 7; The same recombinant enzyme after heat treatment is called the mature enzyme (cited structures 4YDR, 5X9D); The IM/NADP/BU crystal form also holds NADP+ and 1,4-butanediol; also called immature StHSD; IM/NADP/BU; source: Blue Sepharose for the apo-form
As for B1, the “stoichiometry N” value in data set [3] is 2 subunits.
